Data published in patent US6756377B2, “Compounds and their use” (Biovitrum AB, priority 2000, dated 2004).
Where two headings read alike, the source gives them in different places.

Key:
[1] = cited from earlier work
[2] = molecular target: T1, human 5-HT2c receptor protein (Homo sapiens, UniProt P28335); experiment: 5-HT2c receptor affinity assay (displacement of 3H-labelled 5-HT, Scintillation Proximity Assay); conditions: membranes of transfected HEK293 cells; 3H-5-HT displacement; non-specific binding 5 μM mianserin
T1 construct: expressed in transfected cells; host or cells: HEK293 (membranes)
T1 sequence (P28335 33-458): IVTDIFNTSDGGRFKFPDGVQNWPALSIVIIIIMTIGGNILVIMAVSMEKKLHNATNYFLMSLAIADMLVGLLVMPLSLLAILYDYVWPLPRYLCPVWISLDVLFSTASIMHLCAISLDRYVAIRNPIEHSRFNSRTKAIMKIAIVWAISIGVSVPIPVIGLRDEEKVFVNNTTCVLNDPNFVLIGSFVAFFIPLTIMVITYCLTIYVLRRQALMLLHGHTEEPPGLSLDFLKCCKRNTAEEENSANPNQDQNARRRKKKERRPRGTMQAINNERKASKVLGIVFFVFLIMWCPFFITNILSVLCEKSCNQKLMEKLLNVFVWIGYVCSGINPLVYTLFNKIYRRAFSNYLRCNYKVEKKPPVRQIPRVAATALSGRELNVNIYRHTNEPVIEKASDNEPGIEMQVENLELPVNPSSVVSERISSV
Procedure: The 5-HT2c receptor affinity of compounds in the Examples was determined in competition experiments, where the ability of each compound in serial dilution to displace ^3H-labelled 5-HT, bound to membranes prepared from a transfected HEK293 cell line stably expressing the human 5-HT2c receptor protein, was monitored by Scintillation Proximity Assay technology. Non-specific binding was defined using 5 μM mianserin. Typically, the 5HT2c receptor affinity values (Ki, nM) were in the range of 1 nM to 1500 nM, preferably 1 nM to 100 nM.

5-HT2c receptor [3] = molecular target: T2, 5-HT2c receptor (Mus musculus, UniProt P34968); conditions: mice that express the normal 5-HT2c receptor; cited from earlier work
T2 construct: mice that express the normal 5-HT2c receptor; host or cells: mice (in vivo)
T2 sequence (P34968 33-459): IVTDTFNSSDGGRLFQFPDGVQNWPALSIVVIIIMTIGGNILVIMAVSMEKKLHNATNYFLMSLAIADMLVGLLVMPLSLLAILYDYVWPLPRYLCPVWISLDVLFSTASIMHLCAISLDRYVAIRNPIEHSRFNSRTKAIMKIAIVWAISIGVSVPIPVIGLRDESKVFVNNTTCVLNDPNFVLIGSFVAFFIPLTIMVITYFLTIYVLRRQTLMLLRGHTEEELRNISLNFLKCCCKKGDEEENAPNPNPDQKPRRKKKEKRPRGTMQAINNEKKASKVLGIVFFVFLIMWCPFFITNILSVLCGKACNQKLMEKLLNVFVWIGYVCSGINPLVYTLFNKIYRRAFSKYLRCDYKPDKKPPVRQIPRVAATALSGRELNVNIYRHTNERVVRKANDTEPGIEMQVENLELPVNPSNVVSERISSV

5-HT2c receptor [4] = conditions: mice expressing the mutated inactive form of the 5-HT2c receptor; cited from earlier work

Row | Compound | body weight ([1]; controlled clinical studies) | Ki [2] [µM] | other results
1 | CCN[C@@H](C)Cc1cccc(C(F)(F)F)c1 [dexfenflurarnine] | weight reduction |  | 
2 | c1cc(CN2CCOCC2)cc(OCCOc2nccnc2N2CCNCC2)c1 [Example 1, 2-(1-Piperazinyl)-3-{2-[3-(4-morpholinylmethyl)phenoxy]ethoxy}pyrazine] |  | 0.018 | 
3 | CC(C)NCc1cccc(OCCOc2nccnc2N2CCNCC2)c1 [Example 5, 2-(1-Piperazinyl)-3-{2-[3-{(isopropylamino)methyl}phenoxy]ethoxy}pyrazine] |  | 0.003 | 
4 | Clc1cccc(N2CCNCC2)c1 [mCPP, m-chlorophenylpiperazine] |  |  | food intake (5-HT2c receptor [3]): reduces food intake; food intake (5-HT2c receptor [4]): lacks activity; body weight ([1]; obese subjects, after 2 weeks of treatment): slight but sustained reduction in body weight
5 | CNCCC(Oc1ccc(C(F)(F)F)cc1)c1ccccc1 (stereo not shown) [fluoxetine] | weight reduction |  | 
